Data on two compounds can be found in patent publication EP0270692A1, “ANTIARRHYTHMIC AGENT” (KYOWA HAKKO KOGYO CO., LTD., priority 1986, dated 1988).

Where a name gives a salt, the structure may show the parent alone. Read-outs that look alike come from different tables or passages of the source.

In general, ED50 refers to the dose that gives a 50% effect, or the effect in half of the subjects. The term LD50 denotes the dose expected to kill half of the subjects tested.

In data set [1] the test system is chloroform-induced ventricular arrhythmias. Nature of the data set: Mouse chloroform-induced ventricular arrhythmias test. In kind it is in vivo, DD-strain mice. Particulars: for Anti-arrhythmic Activity: 100 mg/kg orally, effective when two or more of three examples kept 720 or less heart beat/min for 30 seconds. The method, then:
Antiarrhythmic activity was examined according to mouse chloroform-induced ventricular arrhythmias test.
DD-strain mice weighing 18 -22 g were abstinent from food and water for 4-5 hours and antiarrhythmic activity was examined according to the Block's method [Life Science 28, 2623 (1981)]. Drugs tested were orally administered (100 mg/kg) and the mice were exposed to chloroform. After stop of respiration, electrocardiogram was measured according to standard limb leading method. The case where 720 or less heart beat/min was maintained for 30 seconds was regarded as effective.
The test compound was judged as being effective when two or more examples were effective among three examples.

The test system of data set [2] is left atrium. Nature of the data set: Reduction of amplitude of myocardial contractile force in excised left atrium. Further details: species or system Male Hartley-strain guinea pigs. From the text:
In Table 2, Test Nos. 1 and 4 are tests on antiarrhythmic activity and Test No. 3, on anticholine activity and Test No. 5, on side effect.

For data set [3], the system named is male dd-strain mice. The data set can be described thus: Test for acute toxicity (MLD; LD50). Conditions: mouse, in vivo. The method, then:
(§1) Groups of 5 male dd-strain mice weighing 20 ±1 g were used. The test compounds were administered either orally (0.3 mg/kg) or intraperitoneally (0.1 mg/kg).
(§2) The MLD (minimum lethal dose) was determined by observing the mortality for 7 days after the administration.

Data set [4] can be described thus: Test for acute toxicity (MLD; LD50). Particulars: mouse, in vivo. The method, then: as §1, §2
Data set [5] concerns left atrium. The data set can be described thus: Prolongation of effective refractory period in excised left atrium. Details: species or system Male Hartley-strain guinea pigs. Conditions: Cavia porcellus; guinea pig left atrium in Krebs-Henseleit solution, 31 ± 1°C; read-out: The concentration required to prolong effective refractory period by 30%. From the text:
(§3) In Table 2, Test Nos. 1 and 4 are tests on antiarrhythmic activity and Test No. 3, on anticholine activity and Test No. 5, on side effect. What is meant by the small ratio of Test No. 1 to that of Test No. 3 and the small ratio of Test No. 4 to that of Test No. 5 is that the compound has high therapeutic ratio (wide safety margin).

In data set [6] the test system is pupil size. The data set can be described thus: Mydriasis activity test (anticholine activity). In kind it is in vivo, Male dd-strain mice. Particulars: oral; dose required to double the pupil size 30 minutes after administration.
From the text: as §3

On to `CCN(CC)CCNC1c2cc(C)ccc2OCc2ncccc21` (centres unmarked) [5-[2-diethylamino)-ethyl]amino-7-methyl-5,11-dihydro[1]benz-oxepino[3,4-b]pyridine, reference compound], for which the “Anti-arrhythmic Activity” value in data set [1] is on record as “^*3 Ineffective”.

In the case of `CCN(CC)CCNC1c2cc(OC)ccc2OCc2ncccc21` (centres unmarked) [1.5 Fumarate of Compound 1], in data set [2] (guinea pig left atrium in Krebs-Henseleit solution, 31 ± 1°C), the “The concentration required to reduce the amplitude of myocardial contractile force by 30%” value is 110 µg/mL. In addition, in data set [2] (ratio of Test No. 5 (contractile force) to Test No. 4 (refractory period)), the “5/4 (ratio)” value came to 22.4. Besides, the “Anti-arrhythmic Activity” value in data set [1] is “Effective”. Moreover, the ED50 in data set [1] (mouse, oral, read-out: Chloroform-induced ventricular antiarrhythmic activity test ED50) amounted to 80 mg/kg. In data set [3] (ip), the “Acute Toxicity MLD i.p.” value is “more than 100 mg/kg”. Further, the “Acute Toxicity MLD p.o.” value in data set [3] (po) is reported as “more than 300 mg/kg”. For the same compound, the LD50 at 72 h is 93 mg/kg in data set [4] (iv, read-out: Acute toxicity test LD50 iv) and greater than 1000 mg/kg in data set [4] (po, read-out: Acute toxicity test LD50 po). Moreover, the EC30 in data set [5] was 4.9 µg/mL. Moreover, the “Mydriasis activity test ED100” value in data set [6] was determined as 235 mg/kg.
